Measured values published in ChEMBL document CHEMBL3784953, “A homology modelling-driven study leading to the discovery of the first mouse trace amine-associated receptor 5 (TAAR5) antagonists” (Medchemcomm, 2016).

How the values were obtained:
[1] = biological target: T1, Trace amine-associated receptor 5 (Mus musculus, UniProt Q5QD14); assay: (§1) Agonist activity at mouse TAAR5 expressed in HEK293 cells assessed as increase in cAMP release after 30 mins by BRET assay relative to control; type: functional, cell-based
T1 sequence (Q5QD14 whole entry): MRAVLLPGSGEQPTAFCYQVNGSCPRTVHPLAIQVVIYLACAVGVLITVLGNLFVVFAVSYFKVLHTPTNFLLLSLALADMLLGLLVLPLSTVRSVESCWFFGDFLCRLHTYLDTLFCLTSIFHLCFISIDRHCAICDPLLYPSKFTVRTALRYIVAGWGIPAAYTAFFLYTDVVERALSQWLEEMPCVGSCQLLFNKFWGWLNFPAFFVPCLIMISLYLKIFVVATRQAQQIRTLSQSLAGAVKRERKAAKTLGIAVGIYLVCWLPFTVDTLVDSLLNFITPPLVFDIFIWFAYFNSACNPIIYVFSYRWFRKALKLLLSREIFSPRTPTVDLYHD

[2] = species: Mus musculus; assay: Selectivity ratio of IC50 for mouse TAAR1 to IC50 for mouse TAAR5
[3] = biological target: Trace amine-associated receptor 1 (Mus musculus, UniProt Q923Y8); assay: Antagonist activity at mouse TAAR1 expressed in HEK293 cells assessed as inhibition of agonist induced cAMP release preincubated for 5 mins followed by addition of agonist by BRET assay; type: functional, cell-based
Sequence of Trace amine-associated receptor 1 (Q923Y8 whole entry): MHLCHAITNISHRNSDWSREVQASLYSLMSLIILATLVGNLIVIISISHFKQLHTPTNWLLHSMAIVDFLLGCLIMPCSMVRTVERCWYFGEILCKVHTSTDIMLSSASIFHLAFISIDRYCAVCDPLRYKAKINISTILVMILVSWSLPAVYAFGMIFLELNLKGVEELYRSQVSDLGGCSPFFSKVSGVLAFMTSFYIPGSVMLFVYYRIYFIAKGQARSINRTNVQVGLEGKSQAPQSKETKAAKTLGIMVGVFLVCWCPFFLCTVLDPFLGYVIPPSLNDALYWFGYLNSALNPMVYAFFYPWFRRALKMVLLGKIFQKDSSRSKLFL

[4] = biological target: T1, Trace amine-associated receptor 5; assay: Antagonist activity at mouse TAAR5 expressed in HEK293 cells assessed as inhibition of agonist induced cAMP release preincubated for 5 mins followed by addition of agonist by BRET assay; type: functional, cell-based
[5] = biological target: T2, Trace amine-associated receptor 5 (Mus musculus) (UniProt Q5QD14); assay: as §1; type: functional, cell-based
T2 sequence (whole entry): T1 sequence (Q5QD14 whole entry)

[6] = biological target: T3, Trace amine-associated receptor 1 (Homo sapiens) (UniProt Q96RJ0); assay: Agonist activity at human TAAR1 expressed in HEK293 cells assessed as increase in cAMP release after 30 mins by BRET assay; type: functional, cell-based
T3 sequence (whole entry): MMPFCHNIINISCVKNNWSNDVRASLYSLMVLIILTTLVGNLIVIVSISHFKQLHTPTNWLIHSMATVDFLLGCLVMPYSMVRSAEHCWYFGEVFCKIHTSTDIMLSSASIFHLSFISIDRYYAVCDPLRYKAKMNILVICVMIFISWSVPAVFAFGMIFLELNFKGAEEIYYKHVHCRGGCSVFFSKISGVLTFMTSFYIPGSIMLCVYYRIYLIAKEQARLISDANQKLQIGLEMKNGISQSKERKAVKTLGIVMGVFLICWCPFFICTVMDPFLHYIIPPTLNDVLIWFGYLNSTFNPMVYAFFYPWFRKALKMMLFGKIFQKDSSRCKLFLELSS

Structure (SMILES): CN(C)C [TRIMETHYLAMMONIUM]
- EC50 [1]: 2.1 µM

Structure (SMILES): COc1ccccc1N1CCN(CC2CCC(c3ccccc3)(c3ccccc3)O2)CC1 (stereo not drawn)
- Ratio IC50 [2]: > 20
- IC50 [3]: > 100 µM
- IC50 [4]: 4.8 µM

Structure (SMILES): NCCc1ccc(Oc2ccc(O)cc2)c(I)c1
- fold change (FC) [5]: 2
- fold change (FC) [6]: 16

Structure (SMILES): COc1ccccc1OCCNCC1CCC(c2ccccc2)(c2ccccc2)O1 (stereo not drawn)
- IC50 [3]: > 100 µM
- IC50 [4]: 29 µM
